Data published in patent US20220009920A1 (GB005, Inc., priority 2020, published 2022).

Key:
Assay in all cases: Large panel kinase profiling
Type in all cases: biochemical
Conditions in all cases: 1 μM test article, 1 mM ATP
NEK1 = target: T1, NEK1 (Homo sapiens, UniProt Q96PY6)
T1 construct: AssayQuant Technologies, Inc. (assay service)
T1 sequence (Q96PY6 1-1258): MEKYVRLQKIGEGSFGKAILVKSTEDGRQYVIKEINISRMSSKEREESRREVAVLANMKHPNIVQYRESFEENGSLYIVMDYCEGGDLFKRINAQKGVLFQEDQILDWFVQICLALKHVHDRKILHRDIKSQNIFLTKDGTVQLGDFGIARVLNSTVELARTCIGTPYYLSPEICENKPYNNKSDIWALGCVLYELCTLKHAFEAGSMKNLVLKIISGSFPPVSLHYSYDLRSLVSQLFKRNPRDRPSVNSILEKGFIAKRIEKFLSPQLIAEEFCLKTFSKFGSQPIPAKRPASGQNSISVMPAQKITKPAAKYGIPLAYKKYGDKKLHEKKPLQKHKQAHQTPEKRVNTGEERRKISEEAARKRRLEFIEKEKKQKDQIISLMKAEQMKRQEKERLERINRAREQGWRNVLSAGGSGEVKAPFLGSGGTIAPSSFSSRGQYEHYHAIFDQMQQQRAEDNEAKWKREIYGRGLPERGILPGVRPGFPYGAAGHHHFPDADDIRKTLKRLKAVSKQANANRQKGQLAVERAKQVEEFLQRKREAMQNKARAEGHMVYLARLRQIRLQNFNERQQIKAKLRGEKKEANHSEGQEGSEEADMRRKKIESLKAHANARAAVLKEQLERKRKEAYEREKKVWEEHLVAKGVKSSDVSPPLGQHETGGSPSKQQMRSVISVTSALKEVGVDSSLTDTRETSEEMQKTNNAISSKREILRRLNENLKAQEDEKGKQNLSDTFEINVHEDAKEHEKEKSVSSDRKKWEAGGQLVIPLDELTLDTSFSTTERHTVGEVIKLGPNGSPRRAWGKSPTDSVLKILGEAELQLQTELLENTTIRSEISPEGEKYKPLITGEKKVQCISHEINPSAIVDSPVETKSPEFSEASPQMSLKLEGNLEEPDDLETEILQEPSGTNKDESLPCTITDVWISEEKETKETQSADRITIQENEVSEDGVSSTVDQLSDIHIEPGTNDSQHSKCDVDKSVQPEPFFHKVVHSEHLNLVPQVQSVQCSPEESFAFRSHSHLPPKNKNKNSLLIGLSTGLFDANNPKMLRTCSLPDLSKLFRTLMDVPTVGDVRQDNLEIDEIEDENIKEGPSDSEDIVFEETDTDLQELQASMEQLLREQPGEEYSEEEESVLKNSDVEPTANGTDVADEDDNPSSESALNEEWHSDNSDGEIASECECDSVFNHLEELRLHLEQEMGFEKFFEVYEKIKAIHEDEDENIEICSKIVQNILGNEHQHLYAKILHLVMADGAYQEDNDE
In short: (§1)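 CSox-Sensor fluorescence readout; test article 1 μM, ATP 1 mM, 30° C.; kinetic reads at 1-min intervals, Ex 360/Em 485 nm.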

BMX = target: T2, BMX (Homo sapiens, UniProt P51813)
T2 sequence (P51813 1-675): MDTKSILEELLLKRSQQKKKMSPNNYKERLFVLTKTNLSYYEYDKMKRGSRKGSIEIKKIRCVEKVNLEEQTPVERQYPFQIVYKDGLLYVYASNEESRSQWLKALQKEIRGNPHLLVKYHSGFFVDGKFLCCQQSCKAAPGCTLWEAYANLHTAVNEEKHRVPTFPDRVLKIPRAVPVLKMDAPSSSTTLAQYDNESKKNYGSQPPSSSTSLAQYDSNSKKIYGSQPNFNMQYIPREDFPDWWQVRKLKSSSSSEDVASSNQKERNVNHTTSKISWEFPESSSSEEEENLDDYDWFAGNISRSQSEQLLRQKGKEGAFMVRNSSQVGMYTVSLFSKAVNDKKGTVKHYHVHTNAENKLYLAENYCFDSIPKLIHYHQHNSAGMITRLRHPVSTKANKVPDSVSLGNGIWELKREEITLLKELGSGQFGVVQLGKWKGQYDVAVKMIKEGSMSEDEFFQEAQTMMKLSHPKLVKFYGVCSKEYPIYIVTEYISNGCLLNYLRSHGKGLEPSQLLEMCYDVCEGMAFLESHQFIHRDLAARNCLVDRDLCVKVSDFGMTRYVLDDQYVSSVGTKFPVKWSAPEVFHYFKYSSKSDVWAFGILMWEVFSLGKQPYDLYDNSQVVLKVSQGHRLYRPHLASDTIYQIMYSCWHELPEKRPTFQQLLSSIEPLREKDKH
In short: as §1

CAMKK2 = target: T3, CAMKK2 (Homo sapiens, UniProt Q96RR4)
T3 construct: AssayQuant Technologies, Inc. (ran the panel)
T3 sequence (Q96RR4 whole entry, species assumed): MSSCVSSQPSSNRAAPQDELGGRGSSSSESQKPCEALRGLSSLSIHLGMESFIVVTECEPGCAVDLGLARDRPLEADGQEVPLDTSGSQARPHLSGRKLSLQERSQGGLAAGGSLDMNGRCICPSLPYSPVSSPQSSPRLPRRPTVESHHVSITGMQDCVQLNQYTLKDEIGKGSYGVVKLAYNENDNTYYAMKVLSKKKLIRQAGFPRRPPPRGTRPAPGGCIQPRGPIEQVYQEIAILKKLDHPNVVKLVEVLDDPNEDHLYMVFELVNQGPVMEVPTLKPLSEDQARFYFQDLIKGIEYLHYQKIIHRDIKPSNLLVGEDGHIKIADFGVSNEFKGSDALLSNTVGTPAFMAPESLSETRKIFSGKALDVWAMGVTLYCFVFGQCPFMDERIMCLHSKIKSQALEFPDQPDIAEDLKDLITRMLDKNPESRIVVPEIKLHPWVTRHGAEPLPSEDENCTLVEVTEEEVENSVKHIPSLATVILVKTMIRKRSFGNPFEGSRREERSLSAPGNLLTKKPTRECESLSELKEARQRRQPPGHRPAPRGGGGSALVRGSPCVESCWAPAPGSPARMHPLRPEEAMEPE
In short: as §1

RPS6KA1/RSK1 = RPS6KA1/RSK1 (Homo sapiens, UniProt Q15418)
Chain of RPS6KA1/RSK1 (Q15418 whole entry): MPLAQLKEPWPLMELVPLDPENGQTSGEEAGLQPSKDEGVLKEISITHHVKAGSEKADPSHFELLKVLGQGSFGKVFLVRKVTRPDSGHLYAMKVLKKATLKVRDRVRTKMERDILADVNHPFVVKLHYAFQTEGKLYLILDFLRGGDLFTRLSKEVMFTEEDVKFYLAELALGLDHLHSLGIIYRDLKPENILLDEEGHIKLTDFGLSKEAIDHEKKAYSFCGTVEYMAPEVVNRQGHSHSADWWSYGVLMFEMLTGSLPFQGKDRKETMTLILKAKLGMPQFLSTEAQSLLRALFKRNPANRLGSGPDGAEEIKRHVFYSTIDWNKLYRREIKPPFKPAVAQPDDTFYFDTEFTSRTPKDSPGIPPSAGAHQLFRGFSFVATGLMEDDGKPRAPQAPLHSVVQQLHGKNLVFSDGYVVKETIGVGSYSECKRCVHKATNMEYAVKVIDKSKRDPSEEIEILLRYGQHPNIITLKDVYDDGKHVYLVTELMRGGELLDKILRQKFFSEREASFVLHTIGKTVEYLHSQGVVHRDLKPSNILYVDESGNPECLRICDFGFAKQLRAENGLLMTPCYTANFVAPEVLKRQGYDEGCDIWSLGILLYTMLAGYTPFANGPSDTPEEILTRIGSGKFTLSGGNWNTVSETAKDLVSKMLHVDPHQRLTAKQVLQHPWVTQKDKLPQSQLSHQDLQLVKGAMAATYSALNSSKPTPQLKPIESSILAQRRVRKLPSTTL
In short: as §1

Row | SMILES | inhibition at 1 µM (NEK1) | inhibition at 1 µM (BMX) | inhibition at 1 µM (CAMKK2) | inhibition at 1 µM (RPS6KA1/RSK1)
1 | C=CC(=O)N1CCCC(c2c(F)cc(C(N)=O)c3[nH]c4c(c23)CCCCC4)C1 (single isomer, unassigned) [Compound 5-6] | -3.1% | 42% | 25.8% | 6.7%
2 | C=CC(=O)N1CCC[C@@H](c2c(F)cc(C(N)=O)c3[nH]c4c(c23)CCC4)C1 [Compound 10-2, (S)-8-(1-acryloylpiperidin-3-yl)-7-fluoro-1,2,3,4-tetrahydrocyclo-penta[b]indole-5-carboxamide] | 11.8% | 65.2% | 2.6% | -29.2%
3 | C=CC(=O)N1CCC[C@@H](c2c(F)cc(C(N)=O)c3[nH]c4c(c23)CC2(CC4)CC2)C1 [Compound 6-2, (S)-5-(1-acryloylpiperidin-3-yl)-6-fluoro-1,2,4,9-tetrahydrospiro[carbazole-3,1′-cyclopropane]-8-carboxamide] | 7.9% | 86% | 0.4% | -49.1%
